Residues, ends and D or L forms follow the SMILES beside them. No end group written: not given here.
Experiments:
[1] = target: T1, angiotensin converting enzyme (ACE) (Oryctolagus cuniculus, UniProt P12822); assay: ACE assay with purified ACE enzyme (Inhibition of Angiotensin Converting Enzyme); type: biochemical; settings: purified ACE enzyme (Sigma); for ACE inhibiting activity (in words): judged from IC50 values; for IC50: synthetic peptides, purity >95%
T1 construct: purchased Sigma
T1 sequence (P12822 34-1310): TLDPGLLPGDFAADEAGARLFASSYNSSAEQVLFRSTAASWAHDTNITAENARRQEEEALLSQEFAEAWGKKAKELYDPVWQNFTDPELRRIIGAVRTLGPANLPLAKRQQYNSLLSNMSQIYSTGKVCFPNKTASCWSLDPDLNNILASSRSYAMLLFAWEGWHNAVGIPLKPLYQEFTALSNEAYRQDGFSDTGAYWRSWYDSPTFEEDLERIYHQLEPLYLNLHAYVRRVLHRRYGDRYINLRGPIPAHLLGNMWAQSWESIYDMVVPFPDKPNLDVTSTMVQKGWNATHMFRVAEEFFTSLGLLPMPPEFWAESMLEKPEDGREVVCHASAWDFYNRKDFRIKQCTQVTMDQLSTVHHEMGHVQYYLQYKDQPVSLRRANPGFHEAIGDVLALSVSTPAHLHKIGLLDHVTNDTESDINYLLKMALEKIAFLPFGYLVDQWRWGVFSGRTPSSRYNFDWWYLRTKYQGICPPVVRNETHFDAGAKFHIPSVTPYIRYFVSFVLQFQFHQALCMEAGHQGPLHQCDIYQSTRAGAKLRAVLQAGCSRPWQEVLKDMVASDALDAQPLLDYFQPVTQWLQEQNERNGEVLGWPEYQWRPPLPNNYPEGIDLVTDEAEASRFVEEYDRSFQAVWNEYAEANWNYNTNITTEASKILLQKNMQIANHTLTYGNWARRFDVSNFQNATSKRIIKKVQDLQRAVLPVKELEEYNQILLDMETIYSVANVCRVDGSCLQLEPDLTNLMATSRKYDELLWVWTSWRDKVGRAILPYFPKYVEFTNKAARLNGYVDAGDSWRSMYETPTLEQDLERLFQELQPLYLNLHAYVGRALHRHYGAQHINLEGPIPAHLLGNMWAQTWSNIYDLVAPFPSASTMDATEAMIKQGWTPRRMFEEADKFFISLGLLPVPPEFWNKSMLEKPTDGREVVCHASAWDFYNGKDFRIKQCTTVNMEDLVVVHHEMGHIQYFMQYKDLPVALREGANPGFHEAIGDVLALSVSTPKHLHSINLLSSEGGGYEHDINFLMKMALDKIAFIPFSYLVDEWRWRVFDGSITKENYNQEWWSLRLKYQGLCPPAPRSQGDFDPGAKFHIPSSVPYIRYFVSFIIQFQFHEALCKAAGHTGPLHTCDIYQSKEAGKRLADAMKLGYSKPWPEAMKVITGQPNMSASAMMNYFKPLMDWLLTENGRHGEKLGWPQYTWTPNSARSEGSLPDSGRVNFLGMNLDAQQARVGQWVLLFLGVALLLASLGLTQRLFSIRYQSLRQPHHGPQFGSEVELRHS
Method: In order to determine IC50 values for the peptides included in this invention, pure peptides (purity of >95% in weight) were prepared by custom solid-phase synthesis on a 10 μmol scale and subsequently purified by HPLC (synthesis and purification performed by Eurosequence, the Netherlands). Purified ACE enzyme (Sigma) was used for the ACE assay (Wu et al. 2002 J. Chromatography 950, 125-130). […] Finally, the peptides which are fragments of the amino acid sequences shown in SEQ ID NO: 1, SEQ ID NO: 2 and SEQ ID NO: 3, respectively SEQ ID NO: 7, SEQ ID NO: 8 and SEQ ID NO: 9 were tested for their ACE inhibiting activity.

[2] = Bioavailability: peptide amount in plasma after oral administration to mice; type: in vivo; settings: mouse, 500 ug, Balb/C mice, 500 μg each orally, two hours after administration, HPLC-MS
Method: Peptides SEQ ID NO: 1, SEQ ID NO: 2 and SEQ ID NO: 3 (purity of >95% in weight, 500 μg each) were orally administered to mice (Balb/C, 3 months of age). After 2 hours, mice were sacrificed and a blood sample collected. After centrifugation of the blood sample (5 min, 3000 g) plasma was collected, dried and resuspended in ethyl acetate. The samples were then analyzed by HPLC-MS, and the amount of the peptides of this invention present in the plasma samples calculated using standard curves. Two hours after their oral administration, all three peptides were found in the plasma samples in the following amounts: SEQ ID NO: 1: 7.5 μg/ml, SEQ ID NO: 2: 1.2 μg/ml, and SEQ ID NO: 3: 0.9 μg/ml.

Row | Compound | ACE inhibiting activity (in words) [1] | IC50 [1] [µM] | level at 2 h [2] [ng/mL]
1 | CC(C)C[C@H](NC(=O)[C@@H](N)CO)C(=O)N1CCC[C@H]1C(=O)N[C@@H](CCC(=O)O)C(=O)O [SEQ ID NO: 2] (H-SLPE-OH; N-terminus and C-terminus assumed) | strong inhibitors of ACE | 329 | 1200
2 | NCCCC[C@H](NC(=O)[C@@H]1CCCN1C(=O)[C@H](CCC(=O)O)NC(=O)[C@@H](N)CO)C(=O)O [SEQ ID NO: 3] (H-SEPK-OH; N-terminus and C-terminus assumed) | strong inhibitors of ACE | 354 | 900
3 | CC(C)C[C@H](N)C(=O)N1CCC[C@H]1C(=O)N[C@@H](CCC(=O)O)C(=O)O [SEQ ID NO: 8] (H-Leu-Pro-Glu-OH; N-terminus and C-terminus assumed) | good ACE inhibitors | 337 | –
4 | NCCCC[C@H](NC(=O)[C@@H]1CCCN1C(=O)[C@@H](N)CCC(=O)O)C(=O)O [SEQ ID NO: 9] (H-Glu-Pro-Lys-OH; N-terminus and C-terminus assumed) | good ACE inhibitors | 364 | –
5 | FYGPIPNS [SEQ ID NO: 4] | good ACE inhibitors | 435 | –
6 | GPIPN [SEQ ID NO: 7] | good ACE inhibitors | 287 | –
7 | LSEPKV [SEQ ID NO: 6] | good ACE inhibitors | 397 | –
8 | NSLPEN [SEQ ID NO: 5] | good ACE inhibitors | 369 | –
9 | YGPIPN [SEQ ID NO: 1] | strong inhibitors of ACE | 317 | 7500

— patent US20080132454A1, “Antihypertensive Peptides” (priority 2004, published 2008)
